Data published in US7728000B2, “Substituted quinolines for the treatment of cancer” (Crystax Pharmaceuticals, priority 2003, dated 2010).

Legend:
GLC-4 = experiment: In vitro cytotoxicity, colorimetric MTT assay on GLC-4; type: cell-based; conditions: GLC4, human carcinoma cell line, concentrations up to 100 mikroM, incubation until 72 h, read-out: IC50 (_M)GLC-4
Protocol: (§1) The in vitro cytotoxicity of the compounds of the present invention was evaluated by colorimetric assays with tetrazol salts (MTT) on Jurkat clon E6-1 and on GLC-4, human leukemia and carcinoma cell lines, respectively. This assay is based on the capacity of live cells to incorporate and reduce the MTT, […], only active in live cells. The intensity of observed colour is directly correlated with the quantity of live cells in the sample as it is described by Mosmann et al., J. Immunol. Methods 1983, vol. 65, p. 55. In all cases the concentrations used were up to 100 mikroM and times of incubation until 72 h.

Jurkat clon E6-1 = experiment: In vitro cytotoxicity, colorimetric MTT assay on Jurkat clon E6-1; type: cell-based; conditions: human leukemia cell line, concentrations up to 100 mikroM, incubation until 72 h, read-out: IC50 (_M) Jurkat clon E6-1
Protocol: as §1

Row | melting point [°C] | Structure (SMILES) | IC50 (GLC-4) [nM] | IC50 (Jurkat clon E6-1) [nM]
1 | 108 to 110 | CN(CCCNC(=O)c1c2ccccc2nc2ccccc12)CCCNC(=O)c1c2ccccc2nc2c1[nH]c1ccccc12 [Ia, N-[3-[[3-[(9-acridinecarbonyl)amino]propyl]methylamino]propyl]-10H-indolo[3,2-b]quinoline-11-carboxamide] | 1630 | 1420
2 | – | CN(C)CCNc1c2nc3ccccc3c-2n(C)c2ccccc12 [Ip, N,N-dimethyl-N′-(5-methyl-5H-indolo[3,2-b]quinolin-11-yl)-ethane-1,2-diamine] | 670 | 260
3 | – | CN(C)CCNC(=O)c1c2ccccc2nc2c1[nH]c1ccccc12 [Iu, 10H-indolo[3,2-b]quinoline-11-carboxylic acid (2-dimethylamino-ethyl)amide] | 15700 | 18700
4 | 188 to 189 | CC(CNC(=O)c1c2ccccc2nc2c1[nH]c1ccccc12)N(C)C (stereo not shown) [Iv, 10H-Indolo[3,2-b]quinoline-11-carboxylic acid (2-dimethylamino-propyl)amide] | 16700 | –
5 | – | CC(CN(C)C)Nc1c2nc3ccccc3c-2n(C)c2ccccc12 (stereo not shown) [Iw, N,N-dimethyl-N′-(5-methyl-5H-indolo[3,2-b]quinolin-11-yl)-propane-1,2-diamine] | 1080 | –
